Reference: patent publication US20240368664A1, “LIVE YEAST BIOSENSORS AND METHODS OF USE THEREOF” (priority 2021, published 2024)
Read-outs that look alike come from different tables or passages of the source. Residues, ends and D or L forms follow the SMILES beside them. No end group written: not given here.

Experiments:
S. cerevisiae GPCR = molecular target: T1, S. cerevisiae GPCR (Saccharomyces cerevisiae, UniProt D6VTK4); experiment: Aspergillus spp peptide/GPCR orthogonality matrix, S. cerevisiae GPCR; format: cell-based; conditions: 40 μM peptide
T1 sequence (D6VTK4 whole entry, looked up): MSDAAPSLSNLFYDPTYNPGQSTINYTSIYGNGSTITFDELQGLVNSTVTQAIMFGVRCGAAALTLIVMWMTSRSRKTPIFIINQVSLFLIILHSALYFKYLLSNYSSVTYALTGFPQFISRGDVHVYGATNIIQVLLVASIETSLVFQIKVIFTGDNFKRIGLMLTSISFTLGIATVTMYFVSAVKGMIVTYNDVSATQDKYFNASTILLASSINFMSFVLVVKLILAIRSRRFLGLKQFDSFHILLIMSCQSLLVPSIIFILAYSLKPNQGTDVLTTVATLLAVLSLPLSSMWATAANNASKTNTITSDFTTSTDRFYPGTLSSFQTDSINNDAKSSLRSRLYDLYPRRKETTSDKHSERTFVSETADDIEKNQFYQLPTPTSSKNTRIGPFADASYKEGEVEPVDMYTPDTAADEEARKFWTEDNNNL
Procedure: FIGS. 6A-6B show Aspergillus spp peptide cross-reactivity with Aspergillus spp GPCRs. […] The test concentration was set at 40 μM of a given peptide ligand.
Next, 13 GPCRs of all genome-mined Aspergillus species, including A. fumigatus from Example 1 and S. cerevisiae, along with inducible fluorescent readout were integrated into optimized parent strain. S. cerevisiae was included to test cross-reactivity with S. cerevisiae GPCR and peptide, since this peptide/GPCR pair will be used for building multi-cellular amplification communities. Then, each strain was activated with all Aspergillus peptides and S. cerevisiae peptide (FIG. 6A). Most of the Aspergillus GPCRs were responsive to at least one peptide, except A. terreus, A. flavus/A. oryzae (same GPCR sequence), A. niger and A. nidulans which were not responsive to any tested peptide. […] The majority of peptides have the same sequence (A. fischeri, A. fumigatus, A. lentulus, A. novofumigatus, A. udagawae and A. viridinutans) and the other active peptides differ only in the third amino acid position from N-terminus (A. clavatus, A. flavus and A. oryzae).

[1] = molecular target: T2, Schizosaccharomyces pombe pheromone GPCR SpSte2 (Schizosaccharomyces pombe) (UniProt Q00619); experiment: cell-based or functional assay
T2 sequence: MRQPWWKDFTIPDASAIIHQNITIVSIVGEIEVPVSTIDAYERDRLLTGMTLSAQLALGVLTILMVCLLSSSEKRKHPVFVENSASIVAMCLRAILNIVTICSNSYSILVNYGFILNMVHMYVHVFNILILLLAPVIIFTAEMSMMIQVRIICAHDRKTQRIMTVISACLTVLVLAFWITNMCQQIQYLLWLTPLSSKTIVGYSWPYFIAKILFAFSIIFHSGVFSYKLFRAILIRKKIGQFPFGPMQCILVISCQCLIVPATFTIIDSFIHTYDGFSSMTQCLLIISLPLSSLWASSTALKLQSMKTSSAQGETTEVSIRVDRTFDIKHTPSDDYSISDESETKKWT

fungal cognate receptors = format: cell-based
AfuSte2 [2] = format: cell-based, A. fumigatus
[3] = tested on: AfuSte2 (first member), ScSte2 (second member); format: cell-based, A. fumigatus
AfuSte2 [4] = format: cell-based, A. fumigatus; remark: listed apart in the source
AfuSte2 [5] = format: cell-based, Aspergillus fumigatus; conditions: nasal swab solution; 30° C. and room temperature
Procedure: (left) and room temperature (right).
To determine whether the yeast biosensor can detect the targeted pathogen analyte in the presence of the nasal swab solution. The yeast biosensor's ability to detect its cognate fungal biomarker in the presence of the nasal swab solution was tested. […] This experiment involved a biosensor containing an Ste2 homolog from Aspergillus fumigatus (AfuSte2) that produces lycopene in response to its cognate pheromone peptide (AfuPep). […] Experiments were carried out at yeast standard growth conditions, which include at 30° C.; experiments also needed to be conducted at at-home-like temperatures to ensure that the biosensor is viable and active in these settings. When incubated at room temperature, the yeast still produced an observable difference in lycopene compared to the water negative control (FIG. 24).

AfuSte2 [6] = tested on: AfuSte2
[7] = tested on: SjSte2 with peptide proteases; format: cell-based, Schizosaccharomyces japonicus; conditions: read-out: apparent EC50
CaSte2 [8] = conditions: CaSte2 (yTC384), no protease; Hill function best-fit ± standard error
[9] = tested on: CaSte2 with protease CaBar1
[10] = tested on: CaSte2 with protease CaBar1; conditions: read-out: "EC50" of the first response phase; biphasic dose-response, phase treated as separate Hill fit
CaSte2 [11] = experiment: CaSte2 biosensor with lycopene readout, without CaBar1 (yTC646); conditions: -CaBar1 strain; 50-300 nM peptide; 1-h preincubation, 7-h incubation
[12] = molecular target: S. octosporus pheromone peptide (SoPep) (Schizosaccharomyces octosporus); experiment: cell-based or functional assay
[13] = fine-tuned optimized strain (yTC453/pDR01)
[14] = natural signaling pathway (yMJ194/pDR01)

WCWLPGQGC [A. terreus peptide, A. terreus pheromone peptide]
cross-reaction with S. cerevisiae GPCR (S. cerevisiae GPCR): cross-reacted

S. pombe pheromone peptide (SpPep)
apparent EC50, ymTurquoise2, strain co-expressing SpSxa2 [1]: 100000 nM

CC(C)C[C@H](NC(=O)[C@H](Cc1c[nH]cn1)NC(=O)[C@H](CS)NC(=O)[C@@H](N)Cc1c[nH]c2ccccc12)C(=O)N1CCC[C@H]1C(=O)NCC(=O)N[C@@H](CCC(N)=O)C(=O)NCC(=O)N[C@@H](CS)C(=O)O [AfuPep] (H-WCHLPGQGC-OH; N-terminus and C-terminus assumed)
activation of fungal cognate receptors by AfuPep (fungal cognate receptors): nor did AfuPep activate fungal cognate receptors | fluorescence intensity relative to background fluorescence (AfuSte2 [2]): two-fold | fold lower AfuPep concentration at which receiver strain responds vs sender strain [3]: 8 fold | LoD / color detection limit in liquid culture (AfuSte2 [4]): 50 nM | limit of detection (LoD) in liquid culture (AfuSte2 [4]): ~30 nM | time to faint visible color in culture pellets (AfuSte2 [4]): one hour | time to obvious color change in liquid culture (AfuSte2 [4]): two hours | lycopene production in the presence of human biospecimens (AfuSte2 [5]): produces lycopene only when AfuPep is present | fold change of fluorescence readout compared to background (AfuSte2 [6]; AfuSte2 on plasmid, inducible mCherry in optimized strain, FIG. 1B): around 4,000 fold | EC50 (AfuSte2 [6]; [13]): ~40 nM | activation fold change (AfuSte2 [6]; [13]): 2,900 fold | basal expression (AfuSte2 [6]; [13]): practically zero | maximal activation (AfuSte2 [6]; [13]): ~2,900 A.U. | EC50 (AfuSte2 [6]; [14]): ~10 nM | activation fold change (AfuSte2 [6]; [14]): 19 fold | maximal activation (AfuSte2 [6]; [14]): ~450 A.U. | basal expression (AfuSte2 [6]; older strain with natural signaling pathway (yMJ194/pDR01)): ~20 A.U. | EC50 (AfuSte2 [6]; read-out: EC50 value (concentration of peptide required for half-maximal activation), AfuSte2 on plasmid, inducible mCherry in optimized strain, FIG. 1B): ~100 nM

VSDRVKQMLSHWWNERNPDTANL [SjPep]
EC50 [7]: > 100000 nM

GARLTNFGYFEPG [CaPep2A]
Hill Slope (CaSte2 [8]): 1.4 ± 0.3 | Hill Slope ([9]; CaSte2 + CaBar1 (yBB02), Hill function best-fit ± standard error): 1.6 ± 0.3 | EC50 ([9]; biosensor with protease CaBar1 under intermediate pRPL18B promoter, 10-h incubation): ~40 nM | cleavage by CaBar1 protease ([9]; judged from CaSte2 activation with/without CaBar1): does not cleave | EC50 [10]: ~1 nM | color development in yeast pellets (CaSte2 [11]): robust orange color development

B1: Schizosaccharomyces octosporus serine carboxypeptidase Sxa2 (SoSxa2) (enzyme)
chain: MNLAVHVLLLSFLLYTVHSFPAYPPYPIYPRSSLNSSNASSVPIPQPSYNSSSKAMNPDLVTSLPEYSGSLPELYSGYLSAENFKQIFYTFAPAITPTDKFIVWLQGGPGCAGTLGFFSENGPIILDPNHQTPQDNPNSWTRFANMMWIDQPFGTGYSQGSPLASTVSIATSDFIQTLKSFYAKFPEMKEKELYLVGESYGSVWGAYFAQALRSDPELHAIPFGGLGIISGLLSDYETQNTITASMWLDHVNKMGLYYTNESAEVSTFFAAKNQQCGYAEVLERMQFPAEQTPIPKPRVNLTNSFSKKKRQADSDSDSGNIKEAFQMITDCDTYTLTDFLLYLKNHCMITYDITLDCSFNSNNDPLTTYLNRKDVQKQLHAIHVESALTSSKGIFGNGCNYDVYGDIVKNGAPSILEEAIPELVQNYKVSFLAGALDFQLLWTGSLLALQNTTWNGWQGFQEIPDLNSPFGFTLDERNLAFTLSNKVGHMAPSKDPSMVIDWLQKTLLG
shift of apparent EC50 on the cognate GPCR with the protease co-expressed (orders of magnitude) [12]: 1.5
